Reference: the METLIN SMRT retention time set (Domingo-Almenara et al. 2019)

Assay: gradient 5% acetonitrile 3 min, to 50% in 2 min, to 85% in 15 min, held 3 min, 100 µL/min
Conditions: column: Zorbax Extend-C18 2.1 x 50 mm; eluents: water / acetonitrile, 0.1% formic acid
Summary of the method: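 In both positive and negative ionization mode, a quadrupole time-of-flight mass spectrometer coupled to HPLC analyzed pure standards run in mixtures of ~100 molecules. The Zorbax Extend-C18 column (2.1 × 50 mm, 1.8 μm) was operated at 100 μL/min with water and acetonitrile, each containing 0.1% formic acid. The dead volume was 40 μL and the dwell volume 900 μL. Retention time came from adduct peaks that were computationally picked and individually inspected by hand.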

RP-LC retention time [s] | Structure (SMILES)
622 | Cc1nn(C(C)C(=O)NCCC(C)C)c(=O)c2nn(-c3ccccc3)c(C)c12 (stereo unspecified)
564 | O=C(c1ccc2c(c1)nnn2CCN1CCOCC1)N1CCSCC1
655 | O=C(CSc1nccn1-c1ccc(Cl)cc1)NCc1ccco1
608 | COCCNc1nc(-c2ccc(C)cc2)nnc1C
664 | Cc1ccc(CN2CCN(CC(=O)Nc3ccc(C)cn3)C(=O)C2=O)cc1
732 | COCC(=O)N1CCCc2ccc(NC(=O)CSc3ccc(F)cc3)cc21
635 | CCn1cc(CCN2CCN(S(=O)(=O)c3cccc(C#N)c3)CC2)c2cccnc21
740 | O=C(C1CC(=O)N(c2n[nH]c3cccc(F)c23)C1)N1CCN(c2ccc(F)cc2)CC1 (stereo unspecified)
713 | CCOc1ccccc1CNC(=O)c1cc2c(=O)n(C)ccc2n1C
619 | COc1ccc(OCC(=O)N2CCN(c3cc(C(C)C)n4cnnc4n3)CC2)cc1
655 | Cc1ccc(S(=O)(=O)N2CCC3(CCC(CN4CCN(C)CC4)O3)CC2)cc1Cl (stereo unspecified)
1130 | O=S(=O)(c1cc(F)ccc1F)N1CCCCC1c1noc(COCC2CC2)n1 (stereo unspecified)
1090 | O=C(CN1C(=O)C(C(=O)N2CCCCCC2)Sc2ccccc21)NC1CCCCC1 (stereo unspecified)
649 | Cc1onc(C(=O)N2CCc3c(c(-c4nncn4C)nn3C)C2)c1Cn1cc(Cl)cn1
584 | O=C(NCc1cccnc1)C1CCN(c2nc3ccc(-c4cncnc4)nc3s2)CC1
924 | COc1ccc(C(=O)Nc2nc(-c3ccc4c(c3)NC(=O)C(C)O4)c(C)s2)cc1 (stereo unspecified)
654 | COc1ccccc1-c1nc2nccc(-c3ccncc3)n2n1
1040 | O=C1NC(=O)c2cc(Nc3ccccc3)c(Nc3ccccc3)cc21
676 | O=C(c1cc(-c2ccccc2Cl)nc2ccccc12)N1CCN(c2ccccn2)CC1
679 | CCN1CCC(N(Cc2cccs2)C(=O)Nc2cccc(Cl)c2)CC1
767 | CC1=C(c2ccccc2)S(=O)(=O)N=C1N1CCCN(C(=O)NCc2ccco2)CC1
791 | O=C(Nc1cc(-c2ccccn2)no1)c1cccc(F)c1

RP-LC retention time [s] | Structure (SMILES)
1400 | Cc1cccc(-c2noc(-c3cccnc3N3CCN(c4ccccc4)CC3)n2)c1
1270 | CCOc1ccc(-c2cc3c(=O)n(Cc4nc(-c5ccc(Cl)c(F)c5)no4)ncn3n2)cc1
678 | CN(c1ncccc1CNc1nc(Nc2ccc3c(c2)CC(=O)N3)ncc1C(F)(F)F)S(C)(=O)=O
736 | CCCn1cc(CCNC(=O)Nc2c(C)cccc2C)c2cccnc21
1150 | Cc1sc(S(=O)(=O)N2CCSCC2)cc1NC(=O)c1ccc(C(C)(C)C)cc1
1090 | Cc1c(Cl)cccc1S(=O)(=O)N1CCc2c(c(-c3nnc(-c4ccc(F)cc4)o3)nn2C)C1
1030 | Cn1nccc1-c1cccc(-c2noc(-c3cccs3)n2)c1
1110 | CCCN1CCN(c2cc(C(=O)O)c3cc(NS(=O)(=O)c4ccccc4)ccc3n2)CC1
768 | CCSc1nnc(-c2nn(C)c3c2CN(C(=O)c2c(F)cccc2Cl)CC3)n1C
982 | CC1CCN(C(=O)CN2c3ccc(F)cc3-c3ccccc3S2(=O)=O)CC1
672 | COc1ccc(Nc2c(-c3ccc(OC)c(OC)c3)nc3cnccn23)cc1OC
746 | COc1ccc(-c2nc3cccnc3n2C2CCN(C(=O)Nc3cccc(OC)c3)C2)cc1 (stereo unspecified)
654 | CCOC(=O)c1ccc(NC(=O)COc2cccc3ccc(N4CCOCC4)nc23)cc1
932 | COC(=O)c1ccc2nc(NC(=O)C3CCCCC3)sc2c1
931 | CCN1c2cc(C)ccc2-n2cccc2C12CCN(C(=O)NCCCOC)CC2
613 | Cc1ccc(-c2nn3c(N4CCN(c5ccccn5)CC4)cc(C)nc3c2C)cc1
902 | C=C1C(=O)C23CC[C@@H]4C(C)(C(=O)OC)CCCC4(C)[C@@H]2CCC1(O)C3 (stereo partly specified)
660 | COc1cccc(CNC(=O)Cn2c(N(C)Cc3ccccc3)nc(C)cc2=O)c1OC
665 | COCCOC1CCN(C(=O)c2cccs2)CC1
993 | COC(=O)c1cccc(C(=O)Nc2ccc(F)cc2Cl)n1
941 | O=S(=O)(Cc1ccccc1)N1CCC(c2noc(COCC3CC3)n2)CC1
820 | COC(=O)c1c(NCc2ccccc2OC)c2cccc(Cl)c2[nH]c1=O

RP-LC retention time [s] | Structure (SMILES)
674 | COC(=O)c1ccc(NC(=O)N2CCC3(CC2)N(CC2CC2)C(=O)CS3=O)cc1 (stereo unspecified)
790 | CN(C)C(=O)CCc1ccc2c(c1)CN(C(=O)C1COc3ccccc3O1)CCO2 (stereo unspecified)
721 | Cc1nn(-c2cc(N3CCCC3)ncn2)c(C)c1CCC(=O)NCCc1ccco1
700 | O=S(=O)(Nc1cccc(Cl)c1)c1ccc2nncn2c1
1240 | CN(C)c1ccc(/C=C2\C=Cc3ccccc32)cc1
597 | CCN(CCNS(=O)(=O)c1ccc2[nH]c(=O)ccc2c1)Cc1ccccc1
1080 | COC(=O)CC1=CC(SCC(=O)N2CCN(c3ccccc3)CC2)=Nc2ccccc2N1
1090 | COC(=O)c1c(-c2ccc(F)cc2)noc1NCCc1cccs1
961 | COc1ccc(-c2nc(-c3cn(Cc4ccc(C)cc4)nn3)no2)cc1OC
910 | CCn1cc(C2=CCN(C(=O)Nc3ccc(SC)cc3)CC2)c2cccnc21
924 | Cc1cccc(NC(=O)N2CCCC(C)(C(=O)NCc3ccc(F)cc3)C2)c1 (stereo unspecified)
735 | Cc1nc2nc(-c3ccccc3)nn2c(C)c1CC(=O)N1CCCCC1
871 | CC(=O)c1ccc(NC(=O)c2cc(C(F)(F)F)n(C)n2)cc1
653 | O=C(NCc1ccncc1)C1CCCN(c2ccc(Sc3ccc(Br)cc3)nn2)C1 (stereo unspecified)
647 | Cc1cn(C)nc1C(=O)Nc1nnc(-c2cccs2)o1
674 | CCC(CC)C(=O)Nc1c(-c2ccc(F)cc2)nc2cc(C)ccn12
688 | COc1cccc(NS(=O)(=O)c2c[nH]c3ncccc23)c1
844 | CC(C)CN1C(=O)CCc2cc(NS(=O)(=O)c3ccccc3)ccc21
816 | N#Cc1nnn(-c2ccc(Cl)cc2)c1N
569 | CCOc1ncccc1CNC(=O)c1ccc2nc[nH]c2c1
701 | COCCNC(=O)CC1CCN(C(=O)c2cc3cc(Cl)ccc3[nH]2)CC1
890 | O=C(Cn1nc(N2CCSCC2)c2ccccc2c1=O)Nc1ccccc1

RP-LC retention time [s] | Structure (SMILES)
654 | CCCS(=O)(=O)N1CC(n2cc(C(=O)N3CCCC3)nn2)C1
917 | CCOC(=O)C1=NN(c2ccccc2)CC1C(=O)OC (stereo unspecified)
616 | CC1CN2C=NC(N3CCN(C(=O)Nc4ccccc4C(F)(F)F)CC3)=CC2=N1 (stereo unspecified)
982 | COc1ccc(-n2ccc(=O)c(-c3nc(-c4ccc(OC(C)C)cc4)no3)n2)cc1
635 | Cc1c(C(=O)N2CCN(C)CC2)cnn1-c1ccc(-c2nc(C3CC3)no2)cn1
764 | CCn1ncc(NC(=O)COc2ccc(C)cc2)c(N2CCOCC2)c1=O
919 | COCCNC(=O)CCc1cn(Cc2ccccc2C)c2ccccc12
943 | CCOC(=O)Cc1c(C)nc2c(-c3ccccc3OC)c(C)nn2c1C
1030 | Cc1cc(NC(=O)c2cc3c(=O)n(CC(C)C)ccc3n2C)ccc1Br
1030 | COc1ccccc1N1CCN(c2cc(SCC(=O)Nc3cccc(Cl)c3)ncn2)CC1
1100 | Cc1c(S(=O)(=O)N2CCC(C)CC2)c(C)n(C)c1-c1nnc(C2CCC2)o1
831 | CCCC(=O)Nc1nc(-c2ccc3c(c2)N(C)C(=O)C(C)O3)cs1 (stereo unspecified)
870 | O=C(NCC1CCCO1)C1CCN(c2ncccc2-c2nc(-c3ccccc3)no2)CC1 (stereo unspecified)
629 | CC(=O)Nc1ccc(C(=O)Nc2ccccc2N)cc1
912 | CC1(C)C(=O)N(CC(=O)Nc2ccccc2Cl)c2ccccc21
623 | COc1ccc2[nH]c(=O)c(CCC(=O)NCCN3CCc4ccccc4C3)cc2c1
1010 | COc1ccccc1N1CCN(S(=O)(=O)c2ccc(F)cc2C)CC1
940 | Cn1cc(S(=O)(=O)N2CCCCC2)cc1C(=O)N1CCN(c2ccc(F)cc2)CC1
1070 | Cc1cc(Cl)ccc1S(=O)(=O)N1CCc2c(c(-c3nc(C4CC4)no3)nn2C)C1
986 | CCCc1nc(-c2c(C)cc(C)nc2NC(=O)c2cccc(Cl)c2)no1
761 | Cc1cc(NC(C)C)n2nc(-c3ccc(Cl)cc3)c(C)c2n1
973 | COC(=O)c1ccc(-c2nc3cnccn3c2NC2CCCCC2)cc1

Structure (SMILES) | RP-LC retention time [s]
CCC(NC(=O)c1cn(C)c2ncccc12)c1cccs1 (stereo unspecified) | 800
CCc1nnc(-c2ccc3ccn(CC(=O)N4CCC5(CC4)OCCO5)c3c2)o1 | 722
CCOc1ccccc1NC(=O)N1CCC2(C1)C(=O)N(C)c1ccc(OC)cc12 (stereo unspecified) | 882
